According to patent publication US20210363213A1, “GLUCAGON-GLP-1-GIP TRIPLE AGONIST COMPOUNDS” (priority 2013, published 2021):
Numbered stars: 1 amine (or outer) side, 2 acyl side, 3 side chain; on linkers, the order of the positions; unused ones are H or OH. Square brackets hold non-standard residues; d marks the D form. Side chains are listed from the residue outwards. Peptide text beside a SMILES is read from it. * marks the point of attachment. C18 diacid = O=C(O)CCCCCCCCCCCCCCCCC(=O)*; γGlu = O=C(O)[C@H](CCC(=O)[*:2])N[*:1]; Stearoyl = CCCCCCCCCCCCCCCCCC(=O)*; AEEA = NCCOCCOCC(=O)O; Aib = CC(C)(N)C(=O)O

target: T1, human GLP-1 R (Homo sapiens, UniProt P43220); assay: Human GLP-1 receptor (GLP-1-R) activity assay, cAMP induction (AlphaScreen) in HEK293 cells; format: cell-based; conditions: Table 2b (most comprehensive data); average EC50; cAMP in HEK293 cells expressing human GLP-1 R; read-out: GLP1 R (EC50 in nM)
T1 construct: expressed in transfected cells
T1 sequence (P43220 24-463): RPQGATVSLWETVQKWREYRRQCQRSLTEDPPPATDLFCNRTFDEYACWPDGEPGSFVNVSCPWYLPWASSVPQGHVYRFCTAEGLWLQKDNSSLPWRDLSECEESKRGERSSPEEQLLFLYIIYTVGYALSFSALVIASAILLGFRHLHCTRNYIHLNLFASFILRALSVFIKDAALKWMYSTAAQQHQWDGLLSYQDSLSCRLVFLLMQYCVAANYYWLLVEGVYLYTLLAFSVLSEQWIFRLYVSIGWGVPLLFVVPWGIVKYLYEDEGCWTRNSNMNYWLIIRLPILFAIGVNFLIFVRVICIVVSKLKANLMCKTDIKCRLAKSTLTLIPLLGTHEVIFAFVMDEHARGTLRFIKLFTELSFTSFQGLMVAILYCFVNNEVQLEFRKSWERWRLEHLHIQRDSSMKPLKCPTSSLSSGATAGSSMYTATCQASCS
Method: (§1) Briefly, HEK293 cells expressing the human GIP R, GLP-1 R or GCG R (stable cell lines generated through transfection of the cDNA for human GIP R, GLP-1 R or GCG R and selection of stable clones) were seeded at 30,000 cells/well in 96-well microtiter plates coated with 0.01% poly-L-lysine, and grown for 1 day in culture in 200 μl growth medium (DMEM, 10% FCS, Penicillin (100 IU/ml), Streptomycin (100 μg/ml)). On the day of analysis, growth medium was removed and the cells were washed once with 150 μl Tyrode's buffer (Tyrode's Salts (9.6 g/I), 10 mM HEPES, pH 7.4). […] The Assay buffer was removed and cells are lysed in 80 μl Lysis buffer (0.1% w/v BSA, 5 mM HEPES, 0.3% v/v Tween-20) per well. From each well 10 μl of lysed cells were transferred to a 384-well plate and mixed with 15 μl bead-mix (1 Unit/15 μl anti-cAMP Acceptor Beads, 1 Unit/15 μl Donor Beads, and 1 Unit/15 μl Biotinylated cAMP in Assay Buffer). The plates were mixed and incubated in the dark for an hour at room temperature before measuring using an Envision™ plate reader (Perkin-Elmer).
(§2) The resulting cAMP curves were plotted as absolute cAMP concentrations (nM) over log (test compound concentration) and analyzed using the curve fitting program XLfit.
(§3) Parameters calculated to describe both the potency as well as the agonistic activity of each test compound on the receptors were:
(§4) EC50, a concentration resulting in a half-maximal elevation of cAMP levels, reflecting the potency of the test compound.

Point of comparison: `CCCCCCCCCCCCCCCCCC(=O)N[C@@H](CCC(=O)NCCOCCOCC(=O)NCCOCCOCC(=O)NCCCC[C@H](NC(=O)[C@H](CCCCN)NC(=O)[C@H](CCC(=O)O)NC(=O)[C@H](CC(C)C)NC(=O)[C@H](C)NC(=O)[C@@H](NC(=O)[C@H](CO)NC(=O)[C@H](Cc1ccc(O)cc1)NC(=O)[C@H](CC(=O)O)NC(=O)[C@H](CO)NC(=O)[C@@H](NC(=O)[C@H](Cc1ccccc1)NC(=O)[C@@H](NC(=O)CNC(=O)[C@H](CCC(N)=O)NC(=O)C(C)(C)NC(=O)[C@@H](N)Cc1ccc(O)cc1)[C@@H](C)O)[C@@H](C)O)[C@@H](C)CC)C(=O)N[C@@H](C)C(=O)N[C@@H](CCC(N)=O)C(=O)N[C@@H](CCCNC(=N)N)C(=O)N[C@@H](C)C(=O)N[C@@H](Cc1ccccc1)C(=O)N[C@H](C(=O)N[C@@H](CCC(=O)O)C(=O)N[C@@H](Cc1c[nH]c2ccccc12)C(=O)N[C@@H](CC(C)C)C(=O)N[C@@H](CC(C)C)C(=O)N[C@@H](C)C(=O)N[C@@H](CCC(N)=O)C(=O)N[C@@H](CCCCN)C(N)=O)C(C)C)C(=O)O` [Compound 46] (H-Y[Aib]QGTFTSDYSIALEKK([AEEA-AEEA-γGlu-Stearoyl])AQRAFVEWLLAQK-NH2), EC50 0.016 nM. Against it:
- CC[C@H](C)[C@H](NC(=O)[C@H](CO)NC(=O)[C@H](Cc1ccc(O)cc1)NC(=O)[C@H](CC(=O)O)NC(=O)[C@H](CO)NC(=O)[C@@H](NC(=O)[C@H](Cc1ccccc1)NC(=O)[C@@H](NC(=O)CNC(=O)[C@H](CCC(N)=O)NC(=O)C(C)(C)NC(=O)[C@@H](N)Cc1ccc(O)cc1)[C@@H](C)O)[C@@H](C)O)C(=O)N[C@@H](Cc1ccc(O)cc1)C(=O)N[C@@H](CC(C)C)C(=O)N[C@@H](CC(=O)O)C(=O)N[C@@H](CCC(=O)O)C(=O)N[C@@H](CCCCN)C(=O)N[C@@H](C)C(=O)N[C@@H](C)C(=O)N[C@@H](CCCCN)C(=O)N[C@@H](CC(=O)O)C(=O)N[C@@H](Cc1ccccc1)C(=O)N[C@H](C(=O)N[C@@H](CCC(=O)O)C(=O)N[C@@H](Cc1c[nH]c2ccccc12)C(=O)N[C@@H](CC(C)C)C(=O)N[C@@H](CC(C)C)C(=O)N[C@@H](CO)C(=O)N[C@@H](C)C(N)=O)C(C)C [Compound 17] (HELM PEPTIDE1{Y.[Aib].Q.G.T.F.T.S.D.Y.S.I.Y.L.D.E.K.A.A.K.D.F.V.E.W.L.L.S.A.[am]}$$$$V2.0) — within 1.5-fold, 0.013 nM
- CC(C)C[C@H](NC(=O)[C@H](C)NC(=O)[C@H](CCCCN)NC(=O)[C@H](CO)NC(=O)[C@H](Cc1ccc(O)cc1)NC(=O)[C@H](CC(=O)O)NC(=O)[C@H](CO)NC(=O)[C@@H](NC(=O)[C@H](Cc1ccccc1)NC(=O)[C@@H](NC(=O)CNC(=O)[C@H](CCC(N)=O)NC(=O)C(C)(C)NC(=O)[C@@H](N)Cc1ccc(O)cc1)[C@@H](C)O)[C@@H](C)O)C(=O)N[C@@H](CC(=O)O)C(=O)N[C@@H](CCC(=O)O)C(=O)N[C@@H](CCCCN)C(=O)N[C@@H](C)C(=O)N[C@@H](C)C(=O)N[C@@H](CCCCN)C(=O)N[C@@H](CCC(=O)O)C(=O)N[C@@H](Cc1ccccc1)C(=O)N[C@H](C(=O)N[C@@H](CCC(=O)O)C(=O)N[C@@H](Cc1c[nH]c2ccccc12)C(=O)N[C@@H](CC(C)C)C(=O)N[C@@H](CC(C)C)C(=O)N[C@@H](CO)C(=O)N[C@@H](C)C(N)=O)C(C)C [Compound 21] (HELM PEPTIDE1{Y.[Aib].Q.G.T.F.T.S.D.Y.S.K.A.L.D.E.K.A.A.K.E.F.V.E.W.L.L.S.A.[am]}$$$$V2.0) — within 1.5-fold, 0.015 nM
- CC(C)C[C@H](NC(=O)[C@H](CC(C)C)NC(=O)[C@H](Cc1c[nH]c2ccccc12)NC(=O)[C@H](CCC(=O)O)NC(=O)[C@@H](NC(=O)[C@H](Cc1ccccc1)NC(=O)[C@H](CCC(=O)O)NC(=O)[C@H](CCCCN)NC(=O)[C@H](CCC(N)=O)NC(=O)[C@H](C)NC(=O)[C@H](CCCCN)NC(=O)[C@H](CCCCN)NC(=O)[C@H](CCC(=O)O)NC(=O)[C@H](CC(C)C)NC(=O)[C@H](Cc1ccc(O)cc1)NC(=O)[C@H](CCCCN)NC(=O)[C@H](CO)NC(=O)[C@H](Cc1ccc(O)cc1)NC(=O)[C@H](CC(=O)O)NC(=O)[C@H](CO)NC(=O)[C@@H](NC(=O)[C@H](Cc1ccccc1)NC(=O)[C@@H](NC(=O)CNC(=O)[C@H](CCC(N)=O)NC(=O)C(C)(C)NC(=O)[C@@H](N)Cc1ccc(O)cc1)[C@@H](C)O)[C@@H](C)O)C(C)C)C(=O)N[C@@H](CO)C(=O)N[C@@H](C)C(N)=O [Compound 22] (HELM PEPTIDE1{Y.[Aib].Q.G.T.F.T.S.D.Y.S.K.Y.L.E.K.K.A.Q.K.E.F.V.E.W.L.L.S.A.[am]}$$$$V2.0) — 1.9-fold higher, 0.03 nM
- CCCCCCCCCCCCCCCC(=O)N[C@@H](CCC(=O)NCCCC[C@H](NC(=O)[C@H](CCC(=O)O)NC(=O)[C@H](CC(C)C)NC(=O)[C@H](Cc1ccc(O)cc1)NC(=O)[C@@H](NC(=O)[C@H](CO)NC(=O)[C@H](Cc1ccc(O)cc1)NC(=O)[C@H](CC(=O)O)NC(=O)[C@H](CO)NC(=O)[C@@H](NC(=O)[C@H](Cc1ccccc1)NC(=O)[C@@H](NC(=O)CNC(=O)[C@H](CCC(N)=O)NC(=O)C(C)(C)NC(=O)[C@@H](N)Cc1ccc(O)cc1)[C@@H](C)O)[C@@H](C)O)[C@@H](C)CC)C(=O)N[C@@H](CCCCN)C(=O)N[C@@H](C)C(=O)N[C@@H](C)C(=O)N[C@@H](CCCCN)C(=O)N[C@@H](CCC(=O)O)C(=O)N[C@@H](Cc1ccccc1)C(=O)N[C@H](C(=O)N[C@@H](CCC(=O)O)C(=O)N[C@@H](Cc1c[nH]c2ccccc12)C(=O)N[C@@H](CC(C)C)C(=O)N[C@@H](CC(C)C)C(=O)N[C@@H](CO)C(=O)N[C@@H](C)C(N)=O)C(C)C)C(=O)O [Compound 24] (HELM PEPTIDE1{Y.[Aib].Q.G.T.F.T.S.D.Y.S.I.Y.L.E.K.K.A.A.K.E.F.V.E.W.L.L.S.A.[am]}|PEPTIDE2{[CCCCCCCCCCCCCCCC(=O)[*:2]].[gGlu]}$PEPTIDE1,PEPTIDE2,16:R3-2:R2$$$V2.0) — 6.9-fold higher, 0.11 nM
- CC[C@H](C)[C@H](NC(=O)[C@H](CO)NC(=O)[C@H](Cc1ccc(O)cc1)NC(=O)[C@H](CC(=O)O)NC(=O)[C@H](CO)NC(=O)[C@@H](NC(=O)[C@H](Cc1ccccc1)NC(=O)[C@@H](NC(=O)CNC(=O)[C@H](CCC(N)=O)NC(=O)C(C)(C)NC(=O)[C@@H](N)Cc1ccc(O)cc1)[C@@H](C)O)[C@@H](C)O)C(=O)N[C@@H](Cc1ccc(O)cc1)C(=O)N[C@@H](CC(C)C)C(=O)N[C@@H](CC(=O)O)C(=O)N[C@@H](CCCCN)C(=O)N[C@@H](CCCCNC(=O)COCCOCCNC(=O)COCCOCCNC(=O)CC[C@H](NC(=O)CCCCCCCCCCCCCCCCC(=O)O)C(=O)O)C(=O)N[C@@H](C)C(=O)N[C@@H](CCC(N)=O)C(=O)N[C@@H](CCCNC(=N)N)C(=O)N[C@@H](C)C(=O)N[C@@H](Cc1ccccc1)C(=O)N[C@H](C(=O)N[C@@H](CCC(=O)O)C(=O)N[C@@H](Cc1c[nH]c2ccccc12)C(=O)N[C@@H](CC(C)C)C(=O)N[C@@H](CC(C)C)C(=O)N[C@@H](C)C(=O)N[C@@H](CCC(N)=O)C(=O)NCC(=O)N1CCC[C@H]1C(=O)N[C@@H](CO)C(=O)N[C@@H](CO)C(=O)NCC(=O)N[C@@H](C)C(=O)N1CCC[C@H]1C(=O)N1CCC[C@H]1C(=O)N1CCC[C@H]1C(=O)N[C@@H](CO)C(N)=O)C(C)C [Compound 33] (H-Y[Aib]QGTFTSDYSIYLDKK([AEEA-AEEA-γGlu-C18 diacid])AQRAFVEWLLAQGPSSGAPPPS-NH2) — 1.7-fold lower, 0.0093 nM

target: T2, human GIP R (Homo sapiens, UniProt P48546); assay: Human GIP receptor (GIP-R) activity assay, cAMP induction (AlphaScreen) in HEK293 cells; format: cell-based; conditions: Table 2b (most comprehensive data); average EC50; cAMP in HEK293 cells expressing human GIP R; read-out: GIP R (EC50 in nM)
T2 construct: expressed in transfected cells
T2 sequence (P48546 22-466): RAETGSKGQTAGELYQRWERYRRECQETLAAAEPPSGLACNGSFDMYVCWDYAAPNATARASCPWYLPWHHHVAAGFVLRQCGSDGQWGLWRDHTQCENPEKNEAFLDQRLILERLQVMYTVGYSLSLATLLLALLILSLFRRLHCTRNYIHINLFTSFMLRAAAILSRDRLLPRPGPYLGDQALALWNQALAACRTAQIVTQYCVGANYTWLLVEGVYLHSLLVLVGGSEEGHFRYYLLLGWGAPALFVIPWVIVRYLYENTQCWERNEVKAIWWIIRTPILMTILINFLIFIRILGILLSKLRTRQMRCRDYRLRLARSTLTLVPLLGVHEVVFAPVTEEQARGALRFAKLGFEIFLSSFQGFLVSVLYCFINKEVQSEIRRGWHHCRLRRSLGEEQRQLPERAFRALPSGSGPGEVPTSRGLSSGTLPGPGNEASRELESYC
Method: as §1, §2, §3, §4

Point of comparison: `CCCCCCCCCCCCCCCC(=O)N[C@@H](CCC(=O)NCCCC[C@H](NC(=O)[C@H](CCCCN)NC(=O)[C@H](CCC(=O)O)NC(=O)[C@H](CC(C)C)NC(=O)[C@H](Cc1ccc(O)cc1)NC(=O)[C@@H](NC(=O)[C@H](CO)NC(=O)[C@H](Cc1ccc(O)cc1)NC(=O)[C@H](CC(=O)O)NC(=O)[C@H](CO)NC(=O)[C@@H](NC(=O)[C@H](Cc1ccccc1)NC(=O)[C@@H](NC(=O)CNC(=O)[C@H](CCC(N)=O)NC(=O)C(C)(C)NC(=O)[C@@H](N)Cc1ccc(O)cc1)[C@@H](C)O)[C@@H](C)O)[C@@H](C)CC)C(=O)N[C@@H](C)C(=O)N[C@@H](C)C(=O)N[C@@H](CCCCN)C(=O)N[C@@H](CCC(=O)O)C(=O)N[C@@H](Cc1ccccc1)C(=O)N[C@H](C(=O)N[C@@H](CCC(=O)O)C(=O)N[C@@H](Cc1c[nH]c2ccccc12)C(=O)N[C@@H](CC(C)C)C(=O)N[C@@H](CC(C)C)C(=O)N[C@@H](CO)C(=O)N[C@@H](C)C(=O)NCC(=O)N1CCC[C@H]1C(=O)N[C@@H](CO)C(=O)N[C@@H](CO)C(=O)NCC(=O)N[C@@H](C)C(=O)N1CCC[C@H]1C(=O)N1CCC[C@H]1C(=O)N1CCC[C@H]1C(=O)N[C@@H](CO)C(N)=O)C(C)C)C(=O)O` [Compound 32] (HELM PEPTIDE1{Y.[Aib].Q.G.T.F.T.S.D.Y.S.I.Y.L.E.K.K.A.A.K.E.F.V.E.W.L.L.S.A.G.P.S.S.G.A.P.P.P.S.[am]}|PEPTIDE2{[CCCCCCCCCCCCCCCC(=O)[*:2]].[gGlu]}$PEPTIDE1,PEPTIDE2,17:R3-2:R2$$$V2.0), EC50 0.04 nM. Against it:
- CC[C@H](C)[C@H](NC(=O)[C@H](CO)NC(=O)[C@H](Cc1ccc(O)cc1)NC(=O)[C@H](CC(=O)O)NC(=O)[C@H](CO)NC(=O)[C@@H](NC(=O)[C@H](Cc1ccccc1)NC(=O)[C@@H](NC(=O)CNC(=O)[C@H](CCC(N)=O)NC(=O)C(C)(C)NC(=O)[C@@H](N)Cc1ccc(O)cc1)[C@@H](C)O)[C@@H](C)O)C(=O)N[C@@H](Cc1ccc(O)cc1)C(=O)N[C@@H](CC(C)C)C(=O)N[C@@H](CC(=O)O)C(=O)N[C@@H](CCCCN)C(=O)N[C@@H](CCCCNC(=O)COCCOCCNC(=O)COCCOCCNC(=O)CC[C@H](NC(=O)CCCCCCCCCCCCCCCCC(=O)O)C(=O)O)C(=O)N[C@@H](C)C(=O)N[C@@H](CCC(N)=O)C(=O)N[C@@H](CCCNC(=N)N)C(=O)N[C@@H](C)C(=O)N[C@@H](Cc1ccccc1)C(=O)N[C@H](C(=O)N[C@@H](CCC(=O)O)C(=O)N[C@@H](Cc1c[nH]c2ccccc12)C(=O)N[C@@H](CC(C)C)C(=O)N[C@@H](CC(C)C)C(=O)N[C@@H](C)C(=O)N[C@@H](CCC(N)=O)C(=O)NCC(=O)N1CCC[C@H]1C(=O)N[C@@H](CO)C(=O)N[C@@H](CO)C(=O)NCC(=O)N[C@@H](C)C(=O)N1CCC[C@H]1C(=O)N1CCC[C@H]1C(=O)N1CCC[C@H]1C(=O)N[C@@H](CO)C(N)=O)C(C)C [Compound 33] (H-Y[Aib]QGTFTSDYSIYLDKK([AEEA-AEEA-γGlu-C18 diacid])AQRAFVEWLLAQGPSSGAPPPS-NH2) — 4-fold lower, 0.0099 nM
